# Assay results reported in patent US20050079502A1, “Transplant rejection suppressor” (AJINOMOTO CO. INC., priority 2000, published 2005).
# Legend:
# [1] = system: peritoneal Mφ of JAK3 knockout mice; assay: GSH content in peritoneal cells of treated JAK3 knockout mice, ACAS with MCB reagent; type: in vivo; settings: 1 mg/ml in drinking water, 24 days
# Description: 300 μl of a cell suspension having cell concentration of 3×10^5 cells/ml was prepared in RPMI 1640 medium (phenol-red-free), and it was charged into a chambered coverglass (#136439 manufactured by Nunc) and incubated in a CO2 incubator of 37° C. for 2 hours. The culture solution was washed with the same medium, and 300 μl of 10 μM monochlorobimane (made by Molecular Plobe) prepared with the same medium was added thereto. The mixture was charged into a CO2 incubator of 37° C., and reacted for 30 minutes. An intensity of fluorescence was then measured by ACAS. By this way, UV laser was used in the ACAS.
# JAK3 knockout mice were divided into three groups. A control group was a group in which mice were caused to freely drink usual tap water, an NAC group was a group in which mice were caused to freely drink tap water containing 1 mg/ml of NAC, and a GSH-OEt group was a group in which mice was caused to freely drink tap water containing 1 mg/ml of GSH-OEt. The bleeding was continued under SPF conditions for 24 days, and peritoneal exudate adhered cells, namely macrophages were obtained in like manner.
# Peritoneal cells of knockout mice that underwent the respective treatments were prepared, and the GSH content in cells was analyzed by ACAS using an MCB reagent.
# IL-12 [2] = assay: IL-12 productivity of Mφ from treated JAK3 knockout mice; type: in vivo; settings: stimulation with LPS and IFNγ, 1 mg/ml in drinking water 24 days, no productivity in control group
# Description: (§1) The quantitative determination of IL-12 was conducted by a bioassay using human T cell strain 2D6 cells (refer to J. LEUKOCYTE BIOLOGY, vol. 61, PP 346, 1997).
# (§2) The 2D6 cells cultured in RPMI 1640 medium containing 500 pg/ml of recombinant human IL-12, 50 μM 2-mercaptoethanol and 10% FCS (bovine fetal serum) were shifted into a tube and centrifugally washed three times with the same medium from which IL-12 was removed, and the cell concentration was adjusted to 1×10^5/ml. The cell suspension was added in an amount of 100 μl to each well of a 96-well flat bottom plate in which 100 μl of a sample diluted in series with RPMI 1640 medium containing 50 μM 2-mercaptoethanol and 10% FCS was previously charged in each well. The mixture was then charged into a 5% CO2 incubator at 37° C. to conduct the incubation for 48 hours. In the last 6 hours, ^3H-TdR was pulsed (a substance adjusted to 370 kBq/ml with RPMI 1640 medium containing 50 μM 2-mercaptoethanol and 10% FCS was added in an amount of 50 μl each). The cells were harvested, and a radioactivity was measured with a β counter (Matrix 96: manufactured by Packard).
# (§3) JAK3 knockout mice were divided into three groups. […]
# IL-12 [3] = assay: IL-12 productivity of Mφ prepared by intraperitoneal injection of substances; type: in vivo, mice; settings: stimulation with LPS and IFNγ; Mφ prepared by intraperitoneal injection of the substance
# Description: as §1, §2
# Mφ prepared by intraperitoneally injecting LNT is reductive Mφ having a high GSH content, and Mφ prepared by intraperitoneally injecting LPS is oxidative Mφ having a low GSH content. It was examined whether or not there was a difference in IL-12 productivity between LNT derived Mφ and LPS derived Mφ.
# Then, the same analysis was conducted using Mφ prepared by intraperitoneally injecting substances of changing the GSH content in cells.
# IL-6 = IL-6 productivity of Mφ from treated JAK3 knockout mice; type: in vivo; settings: LPS stimulation, 1 mg/ml in drinking water 24 days, untreated knockout 962 pg/ml
# Description: A stimulator was added to 1×10^6 Mφ, and the mixture was incubated in a CO2 incubator at 37° C. for 2 days. After centrifugation, the culture supernatant was collected.
# The quantitative determination of IL-6 was conducted using mouse hybridoma MH60 cells grown dependently on IL-6 (refer to J. EUR. IMMUNOL., vol. 18, PP 951, 1988). 100 μl of the culture supernatant was added to 100 μl of the MH60 cell solution adjusted to a concentration of 1×10^5 cells/ml with a 10% FCS-containing RPMI medium, and the mixture was incubated in a CO2 incubator at 37° C. for 2 days. Then, 10 μl of MTT (made by Sigma) was adjusted to a concentration of 5 mg/ml with the same medium. The mixture was reacted at 37° C. for 5 hours. After completion of the reaction, the reaction mixture was centrifuged to remove 160 μl of the supernatant. 100 μl of hydrochloric acid-propanol was added thereto, and it was suspended therein with a pipette man to dissolve cells. Immediately after the dissolution, absorbance of 570 nm was measured by an immunometer (manufactured by Bio-Rad).
# as §3
# [4] = system: peritoneal exudate cells (macrophages); assay: Induction of oxidative or reductive macrophages, monochlorobimane/ACAS analysis of peritoneal exudate cells; type: in vivo; settings: i.p. to mice: 20 μg LPS; 100 μg LNT three times every other day; monochlorobimane 10 μM, ACAS
# Description: The increase in amount of oxidative macrophages can easily be detected visually from the fact that almost no reaction product is observed. More specifically, a gray or blue image is obtained. An increase in amount of reductive macrophages is known from the fact that a red or yellow image can be obtained.
# IL-12 [5] = assay: Inhibition of IL-12 production from LNT-induced Mφ by addition of DEM or BCNU; type: cell-based
# Description: as §1, §2
# It was shown that IL-12 was produced only in reductive Mφ having the high GSH content in cells. […] That is, it was analyzed whether the IL-12 production was inhibited by stimulating the Mφ induced by LNT with DEM or BCNU.
# [6] = system: skin graft (B10.D2 donor, BALB/c recipient, different in minor antigen only); assay: Skin transplantation rejection model; type: in vivo, mouse
# Description: Mice, 8 to 10 weeks old, are used, a BALB/c (H-2d) mouse is used as a recipient in transplantation, and a B10.D2 (H-2d) mouse different in minor antigen only is used as a donor. To the recipient mouse, 3 mg of ketamine and 0.0075 mg of xylazine for anesthesia are intraperitoneally administered, and transplantation is performed. The skin on the body wall of the donor mouse is transplanted on the thoracic wall (8×8 mm). A gauze having a larger size than the graft covers there, and an antibiotic ointment is applied. The graft is fastened with a cast to complete the operation. The cast is removed after 7 days, and the rejection is then observed every day.
# Mice, 8 to 10 weeks old, were used. A BALB/c (H-2d) mouse was used as a recipient of transplantation, and a B10.D2 (H-2d) mouse different in minor antigen only was used as a donor. […]
# With respect to the drug, N,N′-diacetylcystine diethyl ester, 0.5 ml, per injection, of a 400 μg/ml solution was injected in each of the B10.D2 donor and the BALB/c recipient intraperitoneally and subcutaneously in a site for skin transplantation. […] The significant difference in graft survival rate after the skin transplantation was comparatively detected by the Breslow-Gehan-Wilcoxon test using Kaplan-Meier survival curves. […]
# [7] = system: corneal graft (B10.D2 donor, BALB/c recipient, different in minor antigen only); assay: Corneal transplantation into high-risk eyes (induced corneal new blood vessels); rejection judged by corneal opacity score; type: in vivo, mouse
# Description: In estimating the induction of the cornea take in the corneal allograft, mice, 8 to 10 weeks old, are used, a BALB/c (H-2d) mouse is used as a recipient, and a B10.D2 (H-2d) mouse only different in minor antigen is used as a donor.
# The corneal transplantation inducing corneal new blood vessel of a high-risk eye that tends to cause rejection at a high rate in an early stage in a recipient: a corneal parenchyma is sutured with three stitches using a 11-0 nylon yarn which is allowed to stand for 14 days and the nylon yarn is removed in the corneal transplantation, is performed as follows. To a recipient mouse are intraperitoneally administered 3 mg of ketamine and 0.0075 mg of xylazine for anesthesia, and transplantation is performed. A central portion of cornea in a donor mouse is cut out to a circle having a diameter of 2 mm to form a graft. A central portion of cornea in a host mouse is cut out to a diameter of 2 mm. The donor cornea is sutured on margins with eight stitches using a 11-0 nylon yarn. After the surgical operation, an antibiotic ointment is coated thereon, and the eyelids are sutured with a 8-0 nylon yarn. The eyelid suture is removed after 72 hours from the surgical operation, and the corneal suture is removed on day 7 after the transplantation.
# In the judgement of the corneal rejection, monitoring is performed twice a week using a slit-lamp microscope. The rejection is judged by scoring a corneal opacity with six grades. In connection with a time capable of judgement, the score of 3 or more on or after day 14 from the transplantation and the score of 2 or more on or after day 21 are judged to indicate the rejection. […]
# In a method of one administration, a drug is dissolved or suspended in a physiological saline solution to a predetermined concentration, and 0.5 ml thereof is then intraperitoneally injected in a mouse. […] A significant difference in graft survival rate of the corneal transplantation was comparatively detected by the Breslow-Gehan-Wilcoxon test using Kaplan-Meier survival curves. […]
molecule,measurement,setting,value
CCOC(=O)CNC(=O)[C@H](CS)NC(=O)CC[C@H](N)C(=O)O [GSH-OEt],reduced glutathione content in peritoneal Mφ vs tap water control group,[1],remarkably increased
same,IL-12 productivity,IL-12 [2],610 pg/mL
same,IL-12 productivity,IL-12 [3],"3,570 pg/ml"
same,IL-6 productivity,IL-6,82 pg/mL
letinan [LNT],IL-12 productivity,IL-12 [3],"1,312 pg/ml"
same,type of macrophages induced,[4],reductive macrophages were induced
same,IL-12 production from the Mφ induced by LNT,IL-12 [5]; without addition of DEM or BCNU,828 pg/mL
lipopolysaccharide [LPS],IL-12 productivity,IL-12 [3],no productivity was observed
same,type of macrophages induced,[4],oxidative macrophages were induced
CCOC(=O)/C=C\C(=O)OCC [DEM],IL-12 productivity,IL-12 [3],IL-12 was produced by stimulation with LPS and IFNγ only in Mφ derived from mice administered with GSH-OEt
same,IL-12 production from the Mφ induced by LNT after addition,"IL-12 [5]; addition of DEM or BCNU to LNT-induced Mφ, 828 pg/ml without addition",0 pg/mL
"CCOC(=O)[C@H](CSSC[C@H](NC(C)=O)C(=O)OCC)NC(C)=O [N,N′-diacetylcystine diethyl ester]",MST,"[6]; 0.5 ml of 400 μg/ml i.p. and s.c., x3 before (donor and recipient) and day 3-21 after skin transplantation, N=8",28.3 ± 1.8 days
same,graft survival rate in comparison to the PBS administration control group,"[6]; skin transplantation, N=8 vs N=10, P<0.013",significantly increased
"CCCCS(=N)(=O)CCC(N)C(=O)O [BSO, L-S, R-buthionine sulfoximine]",IL-12 productivity,IL-12 [3],IL-12 was produced by stimulation with LPS and IFNγ only in Mφ derived from mice administered with GSH-OEt
CC(=O)N[C@@H](CS)C(=O)O [NAC],reduced glutathione content in peritoneal Mφ vs tap water control group,[1],remarkably increased
same,IL-12 productivity,IL-12 [2],420 pg/mL
same,IL-6 productivity,IL-6,122 pg/mi
"COC(=O)[C@H](CSSC[C@H](NC(C)=O)C(=O)OC)NC(C)=O [NAC (OMe)2, N,N′-diacetylcystine dimethyl ester]",graft survival rate in comparison to the PBS administration control group,"[7]; 0.5 ml of 400 μg/ml i.p. 7 days, 4 days and 1 hour before corneal transplantation, N=15 vs N=10, P<0.0001, Breslow-Gehan-Wilcoxon test",significantly increased
same,rejection in 3 weeks,"[7]; high-risk eye corneal graft, i.p. x3 before transplantation, PBS control rejected by 100% in approximately 3 weeks",0%
same,graft survival rate finally provided,"[7]; high-risk eye corneal graft, observed till the eighth week",77%
